Measured values as given in patent US20210246122A1, “Triazine Compounds and Uses Thereof” (Aduro Biotech, Inc., priority 2018, published 2021).

target: T1, Human cGAS amino acids 155-522 (Homo sapiens, UniProt Q8N884); test: cGAS activity assay (DNA-activated cGAS, remaining ATP measured by Kinase-Glo Max luciferase assay); type: biochemical; details: 300 nM purified cGAS, 1 μM dsDNA, 250 μM ATP, 100 μM GTP, 37° C. for 1.25 hours
T1 construct: hexahistidine tag (N, cleaved yes); made in house; host or cells: E. coli BL21 DE3 Rosetta 2
T1 sequence (Q8N884 157-522): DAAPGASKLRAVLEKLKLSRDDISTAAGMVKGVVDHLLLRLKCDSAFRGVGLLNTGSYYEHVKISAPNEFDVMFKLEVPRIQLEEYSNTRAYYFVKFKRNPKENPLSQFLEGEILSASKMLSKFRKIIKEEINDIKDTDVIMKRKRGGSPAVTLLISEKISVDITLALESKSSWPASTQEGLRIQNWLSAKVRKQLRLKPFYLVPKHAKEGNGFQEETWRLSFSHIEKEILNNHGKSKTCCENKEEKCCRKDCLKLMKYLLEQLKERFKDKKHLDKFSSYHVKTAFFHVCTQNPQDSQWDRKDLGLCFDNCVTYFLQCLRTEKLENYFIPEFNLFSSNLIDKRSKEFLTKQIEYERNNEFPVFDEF
Procedure: IC50 values were determined as follows:
Human cGAS sequence encoding amino acids 155-522 was cloned into a pET (EMD Millipore) based expression plasmid. The resulting construct contained a tandem N-terminal hexahistidine tag, maltose binding protein fusion followed by a tobacco etch virus protease cleavable linker preceding cGAS amino acids 155-522.
Construct sequence: Amino acids 155-522, Human cGAS
Protein was expressed and purified from E. coli BL21 DE3 Rosetta 2 (EMD Millipore) cells using standard techniques. Cells were grown in 2× yeast extract tryptone medium and expression was initiated via the addition of isopropyl β-D-1-thiogalactopyranoside. Expression proceeded overnight at 18° C. Cells were harvested by centrifugation and subsequently lysed via sonication. Insoluble fraction was removed by centrifugation. Maltose binding protein (MBP) fusion proteins were purified on a dextrin sepharose column (GE Healthcare) and the MBP tag was removed using tobacco etch virus protease overnight during dialysis. Protein was further purified on a heparin column (GE Healthcare) and eluted using a NaCl gradient. Column fraction were pooled and further purified on a Superdex 75 gel filtration column (GE Healthcare). Protein was quantified using 280 nm absorbance. Protein was then flash frozen in liquid nitrogen and stored at −80° C. until use.
Potential antagonists were diluted in 100% dimethyl sulfoxide and added to the reaction. Final dimethyl sulfoxide concentration was 5%. The compounds were tested from 1 μM with either 3- or 4-fold serial dilutions down to 0.000051 or 0.000004 μM respectively.
Two complementary DNA oligos (IDT DNA) were annealed by slow cooling from 95° C. The resulting double stranded DNA was used to activate cGAS.
Reactions were performed at 37° C. for 1.25 hours. Reaction buffer: 20 mM Tris HCl pH 9, 100 mM NaCl, 5 mM MgCl2, 0.1 mg/ml bovine gamma globulin, 250 μM adenosine triphosphate, 100 μM guanosine triphosphate, 0.5 mM Tris(2-carboxyethyl)phosphine hydrochloride, 1 μM double stranded DNA and 300 nM purified cGAS protein.
Reactions were stopped and ATP levels in the reaction were measured using a luciferase based assay. Promega Kinase-Glo Max Assay. Luminescence was measured on a plate reader (Molecular Devices). Values were normalized to control wells lacking compound.

IC50, > 250 µM:
COC(=O)[C@H](Cc1ccc(C#N)cc1)Nc1nc(NCc2nccn2C)nc(Nc2cccc(CN3CCN(C(=O)c4nccnc4O)CC3)c2)n1 [TA1034, methyl (S)-3-(4-cyanophenyl)-2-((4-((3-((4-(3-hydroxypyrazine-2-carbonyl)piperazin-1-yl)methyl)phenyl)amino)-6-(((1-methyl-1H-imidazol-2-yl)methyl)amino)-1,3,5-triazin-2-yl)amino)propanoate]
COC(=O)[C@H](Cc1ccc(C#N)cc1)Nc1nc(NCc2nccn2C)nc(Nc2cccc(CN3CCNCC3)c2)n1 [TA1032, methyl (S)-3-(4-cyanophenyl)-2-((4-(((1-methyl-1H-imidazol-2-yl)methyl)amino)-6-((3-(piperazin-1-ylmethyl)phenyl)amino)-1,3,5-triazin-2-yl)amino)propanoate]
COC(=O)[C@H](Cc1ccc(C#N)cc1)Nc1nc(NCc2nc3cc(F)ccc3[nH]2)nc(Nc2cccc(CN3CCN(C(=O)OC(C)(C)C)CC3)c2)n1 [TA1003, tert-butyl (S)-4-(3-((4-((3-(4-cyanophenyl)-1-methoxy-1-oxopropan-2-yl)amino)-6-(((5-fluoro-1H-benzo[d]imidazol-2-yl)methyl)amino)-1,3,5-triazin-2-yl)amino)benzyl)piperazine-1-carboxylate]
COC(=O)[C@@H](Cc1ccc(C#N)cc1)Nc1nc(NCc2nc3cc(F)ccc3[nH]2)nc(Nc2cccc(CN3CCNCC3)c2)n1 [TA1019, methyl (R)-3-(4-cyanophenyl)-2-((4-(((5-fluoro-1H-benzo[d]imidazol-2-yl)methyl)amino)-6-((3-(piperazin-1-ylmethyl)phenyl)amino)-1,3,5-triazin-2-yl)amino)propanoate]
CN(C)C(=O)[C@H](Cc1ccc(C#N)cc1)Nc1nc(NCc2nc3cc(F)ccc3[nH]2)nc(Nc2cccc(CN3CCN(C(=O)OC(C)(C)C)CC3)c2)n1 [TA1036, tert-butyl (S)-4-(3-((4-((3-(4-cyanophenyl)-1-(dimethylamino)-1-oxopropan-2-yl)amino)-6-(((5-fluoro-1H-benzo[d]imidazol-2-yl)methyl)amino)-1,3,5-triazin-2-yl)amino)benzyl)piperazine-1-carboxylate]
COC(=O)[C@H](Cc1ccc(C#N)cc1)Nc1nc(Nc2cccc(CN3CCN(C(=O)[C@@H]4CCCO4)CC3)c2)nc(N(C)CCc2nc3ccc(OC)cc3[nH]2)n1 [TA1056, methyl (S)-3-(4-cyanophenyl)-2-((4-((2-(6-methoxy-1H-benzo[d]imidazol-2-yl)ethyl)(methyl)amino)-6-((3-((4-((S)-tetrahydrofuran-2-carbonyl)piperazin-1-yl)methyl)phenyl)amino)-1,3,5-triazin-2-yl)amino)propanoate]
COC(=O)[C@H](Cc1ccc(C#N)cc1)Nc1nc(NCc2nnn[nH]2)nc(Nc2cccc(CN3CCNCC3)c2)n1 [TA1068, methyl (S)-2-((4-(((1H-tetrazol-5-yl)methyl)amino)-6-((3-(piperazin-1-ylmethyl)phenyl)amino)-1,3,5-triazin-2-yl)amino)-3-(4-cyanophenyl)propanoate]
COC(=O)[C@H](Cc1ccc(C#N)cc1)Nc1nc(NCc2nc3cc(Cl)ccc3[nH]2)nc(Nc2cccc(CN3CCN(C(=O)c4cccc(-n5cccn5)c4)CC3)c2)n1 [TA1060, methyl (S)-2-((4-((3-((4-(3-(1H-pyrazol-1-yl)benzoyl)piperazin-1-yl)methyl)phenyl)amino)-6-(((5-chloro-1H-benzo[d]imidazol-2-yl)methyl)amino)-1,3,5-triazin-2-yl)amino)-3-(4-cyanophenyl)propanoate]
COC(=O)[C@H](Cc1ccc(C#N)cc1)Nc1nc(Nc2cccc(CN3CCN(C(=O)c4nccnc4O)CC3)c2)nc(OC)n1 [TA1074, methyl (S)-3-(4-cyanophenyl)-2-((4-((3-((4-(3-hydroxypyrazine-2-carbonyl)piperazin-1-yl)methyl)phenyl)amino)-6-methoxy-1,3,5-triazin-2-yl)amino)propanoate]
CN(C)C(=O)[C@H](Cc1ccc(C#N)cc1)Nc1nc(Cl)nc(Nc2cccc(CN3CCNCC3)c2)n1 [TA1009, (S)-2-((4-chloro-6-((3-(piperazin-1-ylmethyl)phenyl)amino)-1,3,5-triazin-2-yl)amino)-3-(4-cyanophenyl)-N,N-dimethylpropanamide]
CN(C)C(=O)[C@H](Cc1ccc(C#N)cc1)Nc1nc(NCc2nc3cc(F)ccc3[nH]2)nc(Nc2cccc(CN3CCNCC3)c2)n1 [TA1013, (S)-3-(4-cyanophenyl)-2-((4-(((5-fluoro-1H-benzo[d]imidazol-2-yl)methyl)amino)-6-((3-(piperazin-1-ylmethyl)phenyl)amino)-1,3,5-triazin-2-yl)amino)-N,N-dimethylpropanamide]
COC(=O)[C@H](Cc1ccc(C#N)cc1)Nc1ncnc(Nc2cccc(CN3CCN(C(=O)c4nccnc4O)CC3)c2)n1 [TA1026, methyl (S)-3-(4-cyanophenyl)-2-((4-((3-((4-(3-hydroxypyrazine-2-carbonyl)piperazin-1-yl)methyl)phenyl)amino)-1,3,5-triazin-2-yl)amino)propanoate]
CNC(=O)[C@H](Cc1ccc(C#N)cc1)Nc1nc(NCc2nc3cc(F)ccc3[nH]2)nc(Nc2cccc(CN3CCN(C=O)CC3)c2)n1 [TA1030, (S)-3-(4-cyanophenyl)-2-((4-(((5-fluoro-1H-benzo[d]imidazol-2-yl)methyl)amino)-6-((3-((4-formylpiperazin-1-yl)methyl)phenyl)amino)-1,3,5-triazin-2-yl)amino)-N-methylpropanamide]
COCCNc1nc(Nc2cccc(CN3CCN(C(=O)c4nccnc4O)CC3)c2)nc(N[C@@H](Cc2ccc(C#N)cc2)C(=O)OC)n1 [TA1033, methyl (S)-3-(4-cyanophenyl)-2-((4-((3-((4-(3-hydroxypyrazine-2-carbonyl)piperazin-1-yl)methyl)phenyl)amino)-6-((2-methoxyethyl)amino)-1,3,5-triazin-2-yl)amino)propanoate]
COC(=O)[C@H](Cc1ccc(C#N)cc1)Nc1nc(NCc2nc3cc(F)ccc3[nH]2)nc(Nc2cccc(CN3CCN(C(C)=O)CC3)c2)n1 [TA1075, methyl (S)-2-((4-((3-((4-acetylpiperazin-1-yl)methyl)phenyl)amino)-6-(((5-fluoro-1H-benzo[d]imidazol-2-yl)methyl)amino)-1,3,5-triazin-2-yl)amino)-3-(4-cyanophenyl)propanoate]
COC(=O)[C@H](Cc1ccc(C#N)cc1)Nc1nc(Cl)nc(Nc2cccc(CN3CCN(C(=O)OC(C)(C)C)CC3)c2)n1 [TA1002, tert-butyl (S)-4-(3-((4-chloro-6-((3-(4-cyanophenyl)-1-methoxy-1-oxopropan-2-yl)amino)-1,3,5-triazin-2-yl)amino)benzyl)piperazine-1-carboxylate]
COCCOCCNC(=O)[C@H](Cc1ccc(C#N)cc1)Nc1nc(NCc2nc3cc(F)ccc3[nH]2)nc(Nc2cccc(CN3CCNCC3)c2)n1 [TA1023, (S)-3-(4-cyanophenyl)-2-((4-(((5-fluoro-1H-benzo[d]imidazol-2-yl)methyl)amino)-6-((3-(piperazin-1-ylmethyl)phenyl)amino)-1,3,5-triazin-2-yl)amino)-N-(2-(2-methoxyethoxy)ethyl)propanamide]
